The assay has as its system HT-29 cells. Kind of assay: HT-29 necroptosis cell viability assay (TNF-α/SMAC mimetic/zVAD-FMK, CellTiter-Glo). The following applies: Homo sapiens. Type of assay: cell-based. The gist of the method: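 Necroptosis was triggered by TNF-α (10 ng/ml), SMAC mimetic (6 μM) and zVAD-FMK (10 μM) in serum-free medium during 20 h compound exposure (10 concentrations, threefold steps) of HT-29 cells. IC50 from duplicate dose-responses uses CellTiter-Glo ATP luminescence as viability read-out.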

The mark [1] stands for this setting: HT-29, HT-29 necroptosis cell viability assay, class symbols for IC50, read-out: Activity.
The mark [2] stands for this setting: HT-29, HT-29 necroptosis cell viability, IC50 class symbols, read-out: Activity.

Drawing on patent US20250179061A1 (SIRONAX LTD., priority 2022, published 2025), this text covers IC50 for 12 compounds.

Like-named read-outs stand apart in the source and are kept apart here. A value given as a limit tells only on which side of the number the result lay.

For `Cc1nn(-c2ccc(S(=O)(=O)N3CCN(C4CCCC4)CC3)cc2)c(=O)n1Cc1ccccc1` [Example 619, 4-benzyl-2-(4-((4-cyclopentylpiperazin-1-yl)sulfonyl)phenyl)-5-methyl-2,4-dihydro-3H-1,2,4-triazol-3-one], the IC50 under setting [1] is over 10000 nM.

Take `CC1(CNC(=O)OC(C)(C)C)CN(c2cc(Oc3ccc(-n4ncn(Cc5c(F)cccc5F)c4=O)cc3F)c(F)cn2)C1` [Example 557, tert-butyl ((1-(4-(4-(4-(2,6-difluorobenzyl)-5-oxo-4,5-dihydro-1H-1,2,4-triazol-1-yl)-2-fluorophenoxy)-5-fluoropyridin-2-yl)-3-methylazetidin-3-yl)methyl)carbamate]: under setting [1], the IC50 is under 100 nM.

Turning to `Cc1nc(CC(N)=O)c(Oc2ccc(-n3ncn(Cc4c(F)cccc4F)c3=O)cc2F)s1` [Example 138, 2-(5-(4-(4-(2,6-difluorobenzyl)-5-oxo-4,5-dihydro-1H-1,2,4-triazol-1-yl)-2-fluorophenoxy)-2-methylthiazol-4-yl)acetamide], the IC50 under setting [1] was under 100 nM. As for `Cc1nc(C(N)=O)sc1Oc1ccc(-n2ncn(Cc3c(F)cccc3F)c2=O)cc1F` [Example 559, 5-(4-(4-(2,6-difluorobenzyl)-5-oxo-4,5-dihydro-1H-1,2,4-triazol-1-yl)-2-fluorophenoxy)-4-methylthiazole-2-carboxamide], the IC50 under setting [1] is under 100 nM. Take `CC1(N)CN(c2nccc(Oc3ccc(-n4ncn(Cc5c(F)cccc5F)c4=O)cc3Cl)c2F)C1` [Example 423, 2-(4-((2-(3-amino-3-methylazetidin-1-yl)-3-fluoropyridin-4-yl)oxy)-3-chlorophenyl)-4-(2,6-difluorobenzyl)-2,4-dihydro-3H-1,2,4-triazol-3-one]: the IC50 under setting [2] is under 100 nM.

As for `CCOC(=O)c1nn(Cc2ccc(-n3ncn(Cc4c(F)cccc4F)c3=O)cc2F)c(C)c1C` [Example 202, ethyl 1-(4-(4-(2,6-difluorobenzyl)-5-oxo-4,5-dihydro-1H-1,2,4-triazol-1-yl)-2-fluorobenzyl)-4,5-dimethyl-1H-pyrazole-3-carboxylate], under setting [1], the IC50 is under 100 nM. In the case of `N#CC1(F)CN(c2cc(Oc3ccc(-n4ncn(Cc5c(F)cccc5F)c4=O)cc3)ccn2)C1` [Example 252, 1-(4-(4-(4-(2,6-difluorobenzyl)-5-oxo-4,5-dihydro-1H-1,2,4-triazol-1-yl)phenoxy)pyridin-2-yl)-3-fluoroazetidine-3-carbonitrile], the IC50 under setting [2] is 100 to 1000 nM.

Turning to `N#CC1CCN(c2cc(Oc3ccc(-n4ncn(Cc5c(F)cccc5F)c4=O)cc3)ccn2)C1` (stereo not drawn) [Example 384, 1-(4-(4-(4-(2,6-difluorobenzyl)-5-oxo-4,5-dihydro-1H-1,2,4-triazol-1-yl)phenoxy)pyridin-2-yl)pyrrolidine-3-carbonitrile], the IC50 under setting [2] is under 100 nM. On to `COC(=O)c1nc(C)c(Oc2ccc(-n3ncn(Cc4ccccc4F)c3=O)cc2F)s1` [Example 107, methyl 5-(2-fluoro-4-(4-(2-fluorobenzyl)-5-oxo-4,5-dihydro-1H-1,2,4-triazol-1-yl)phenoxy)-4-methylthiazole-2-carboxylate], for which, under “HT-29 cells stimulated with TNF-α (10 ng/ml), SMAC mimetic (6 μM) and zVAD-FMK (10 μM), 20 hours, CellTiter-Glo ATP luminescence, geometric mean IC50 from 10 points, read-out: Activity”, the IC50 was under 100 nM. Consider `CCN(C)c1cc(Oc2ccc(-n3ncn(Cc4c(F)cccc4F)c3=O)cc2)ccn1` [Example 353, 4-(2,6-difluorobenzyl)-2-(4-((2-(ethyl(methyl)amino)pyridin-4-yl)oxy)phenyl)-2,4-dihydro-3H-1,2,4-triazol-3-one], for which the IC50 under setting [2] was 100 to 1000 nM. Turning to `Cc1nc(CC#N)c(C)n1Cc1ccc(-n2ncn(Cc3c(F)cccc3F)c2=O)cc1F` [Example 142, 2-(1-(4-(4-(2,6-difluorobenzyl)-5-oxo-4,5-dihydro-1H-1,2,4-triazol-1-yl)-2-fluorobenzyl)-2,5-dimethyl-1H-imidazol-4-yl)acetonitrile], under setting [1], the IC50 is 1000 to 10000 nM. Consider `COc1cc(Oc2ccc(-n3ncn(Cc4c(F)cccc4F)c3=O)cc2)ccn1` [Example 661, 4-(2,6-difluorobenzyl)-2-(4-((2-methoxypyridin-4-yl)oxy)phenyl)-2,4-dihydro-3H-1,2,4-triazol-3-one], for which the IC50 (HT-29, HT-29 cells, necroptosis induced by TNF-α/SMAC mimetic/zVAD-FMK, CellTiter-Glo, read-out: Activity (IC50 class)) fell in the range of 100 to 1000 nM.
